Assay results from patent US4839371A, “3-aralkyl-2-mercaptoyridines as dopamine-β-hydroxylase inhibitors” (SmithKline Beckman Corporation, priority 1987, dated 1989).
Read-outs that look alike come from different tables or passages of the source.

Experiments:
[1] = test system: spontaneously hypertensive rats; assay: mean arterial blood pressure in spontaneously hypertensive rats; assay type: in vivo; details: 50 mg/kg intraperitoneally
Text: Maximal blood pressure reduction was approximately 50 to 55 mm Hg.

DBH [2] = target: T1, DBH (Bos taurus, UniProt P15101); assay: in vitro DBH inhibition (conversion of tyramine to octopamine, spectrophotometric at 330 nm)
T1 sequence (P15101 1-610): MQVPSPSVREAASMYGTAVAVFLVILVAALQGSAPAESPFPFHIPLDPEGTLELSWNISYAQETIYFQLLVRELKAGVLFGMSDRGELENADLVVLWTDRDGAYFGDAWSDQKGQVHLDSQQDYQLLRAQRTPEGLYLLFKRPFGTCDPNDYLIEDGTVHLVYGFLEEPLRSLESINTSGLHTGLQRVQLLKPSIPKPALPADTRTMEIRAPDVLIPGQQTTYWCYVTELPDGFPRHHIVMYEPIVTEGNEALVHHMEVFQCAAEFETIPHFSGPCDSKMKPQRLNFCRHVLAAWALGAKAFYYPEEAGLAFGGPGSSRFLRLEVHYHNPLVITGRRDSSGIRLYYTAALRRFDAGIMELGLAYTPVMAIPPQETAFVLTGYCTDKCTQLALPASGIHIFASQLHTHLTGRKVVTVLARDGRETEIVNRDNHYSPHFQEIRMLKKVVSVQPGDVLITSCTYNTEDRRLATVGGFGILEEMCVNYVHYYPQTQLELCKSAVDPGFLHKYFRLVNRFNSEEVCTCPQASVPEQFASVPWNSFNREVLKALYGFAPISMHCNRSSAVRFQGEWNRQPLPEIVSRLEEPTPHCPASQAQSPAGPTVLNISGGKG

DBH [3] = details: cited from earlier work
[4] = patients, Friedman et al., Psychosomatic Med. 40, 107 (1978), significance uncertain

Row | IC50 (DBH [2]) [µM] | SMILES | lowered DBH levels in treated patients (DBH [3]; [4]) | further results
1 | 134 | Fc1cc(F)cc(Cc2cccnc2S)c1 |  | blood pressure reduction compared to vehicle-treated controls ([1]; monitored for 260 minutes): significant blood pressure reductions; time after treatment to significant blood pressure reductions ([1]; within approximately): ≤ 30 min
2 | 500 | Fc1cccc(Cc2cccnc2S)c1 [3-(3-Fluorobenzyl)-2-mercaptopyridine] |  | 
3 |  | C[C@](N)(Cc1ccc(O)c(O)c1)C(=O)O [alpha-methyl-DOPA] | lowered DBH levels | 
4 |  | CC(C)NCC(O)COc1cccc2ccccc12 (stereo not shown) [propranolol] |  | lowered DBH levels in treated patients (DBH [3]; human, in vivo): not
5 |  | COC(=O)[C@H]1[C@H]2C[C@@H]3c4[nH]c5cc(OC)ccc5c4CCN3C[C@H]2C[C@@H](OC(=O)c2cc(OC)c(OC)c(OC)c2)[C@@H]1OC [reserpine] | lowered DBH levels | 
